Reference: ChEMBL document CHEMBL5113410, “Novel flavonoid hybrids as potent antiviral agents against hepatitis A: Design, synthesis and biological evaluation” (Eur J Med Chem, 2022)
Activity calls are given as the source filed them. The calls are words filed in the database; no cut-off is given here.

Columns and labels:
[1] = test system: Hepatovirus A; experiment: Antiviral activity against hepatitis A virus genotype 1b infected in human Huh-7.5.1 cells assessed as reduction in virus production at 10 uM incubated for 72 hrs by Nano-Glo luciferase assay; format: functional, organism-based
[2] = test system: Huh7.5.1; experiment: Cytotoxicity in human Huh-7.5.1 cells assessed as reduction in cell viability at 10 uM incubated for 72 hrs by CellTiter-Glo luminescent cell viability assay; format: toxicity, cell-based; conditions: huh7.5.1, 72 h
[3] = test system: Hepatovirus A; experiment: Antiviral activity against hepatitis A virus infected in human Huh-7.5.1 cells assessed as reduction in viral RNA replication at 2 to 50 uM incubated for 72 hrs by luciferase reporter dependent subgenomic replicon assay; format: functional; conditions: dose 2-50 µM
[4] = test system: Hepatovirus A; experiment: Antiviral activity against hepatitis A virus genotype 1b infected in human Huh-7.5.1 cells assessed as reduction in virus production incubated for 72 hrs by Nano-Glo luciferase assay; format: functional, organism-based; conditions: for Activity: DDE = dose-dependent effect; for EC50: Huh-7.5.1, 72 h
[5] = test system: Hepatovirus A; experiment: Antiviral activity against hepatitis A virus TICM005 infected in human Huh-7.5.1 cells assessed as reduction in cytoplasmic viral RNA level at 5 to 20 uM incubated for 72 hrs dosed after infection for 6 hrs by RT-qPCR method; format: functional, organism-based; conditions: TICM005, Huh-7.5.1
[6] = Cytotoxicity in human Huh-7.5.1 cells assessed as reduction in cell viability incubated for 72 hrs by CellTiter-Glo luminescent cell viability assay; format: toxicity, cell-based, Huh7.5.1
[7] = test system: Hepatovirus A; experiment: Antiviral activity against hepatitis A virus HM175 infected in human Huh-7.5.1 cells assessed as reduction in HAV2c Protein expression at 10 uM incubated for 48 hrs by immunofluorescence assay; format: functional, organism-based
[8] = test system: Hepatovirus A; experiment: Antiviral activity against hepatitis A virus HM175/18f infected in human Huh-7.5.1 cells assessed as reduction in HM175 production at 2 to 50 uM incubated for 72 hrs by RT-qPCR method; format: functional, organism-based; conditions: dose 2-50 µM, DDE = dose-dependent effect
[9] = test system: Hepatovirus A; experiment: Antiviral activity against hepatitis A virus KRM031 infected in human Huh-7.5.1 cells assessed as reduction in cytoplasmic viral RNA level at 5 to 20 uM incubated for 72 hrs dosed after infection for 6 hrs by RT-qPCR method; format: functional, organism-based; conditions: KRM031, Huh-7.5.1
[10] = Selectivity index, ratio of CC50 for Cytotoxicity in human Huh-7.5.1 cells to EC50 for Antiviral activity against hepatitis A virus genotype 1b infected in human Huh-7.5.1 cells; format: toxicity, cell-based; conditions: read-out: Ratio CC50/EC50
[11] = test system: Hepatovirus A; experiment: Antiviral activity against hepatitis A virus genotype 1b infected in human Huh-7.5.1 cells assessed as reduction in virus production at 10 uM incubated for 72 hrs after 6 hrs HAV/NLuc infection by Nano-Glo luciferase assay; format: functional, organism-based

Structure (SMILES) | Activity [1] | Activity [2] | inhibition (INH) [3] [%] | Activity [4] | EC50 [4] [µM] | EC50 [5] [µM] | CC50 at 72 h [6] [µM] | Activity [7] | inhibition [8] | EC50 [9] [µM] | selectivity ratio [10] | inhibition [11]
COc1cc(OCC(=O)N/N=C/c2ccc(Cl)c(Cl)c2)cc2c1CCC(c1cc(OC)c(OC)c(OC)c1)O2 (stereo unspecified) | Active | Toxic | – | – | – | – | – | – | – | – | – | –
COc1cc(OCC(=O)N/N=C/c2ccc(Br)cc2)cc2c1CCC(c1cc(OC)c(OC)c(OC)c1)O2 (stereo unspecified) | Active | Non-Toxic | 93 | Dde | 6.1 | > 20 | 152 | Active | Dde | > 20 | 25 | Active
COc1ccc(/C=N/NC(=O)COc2cc(OC)c3c(c2)OC(c2cc(OC)c(OC)c(OC)c2)CC3)cc1 (stereo unspecified) | Active | Toxic | – | – | – | – | – | – | – | – | – | –
COc1cc(OCC(=O)N/N=C/c2ccc(Cl)s2)cc2c1CCC(c1cc(OC)c(OC)c(OC)c1)O2 (stereo unspecified) | Active | Non-Toxic | 98.1 | Dde | 5.3 | 11.7 | 83.3 | Active | Dde | 8.5 | 15.7 | Active
COc1cc(OCC(=O)N/N=C(\C)c2ccccc2O)cc2c1CCC(c1cc(OC)c(OC)c(OC)c1)O2 (stereo unspecified) | Active | Toxic | – | – | – | – | – | – | – | – | – | –
COc1cc(OCC(=O)N/N=C/c2ccc(Cl)cc2)cc2c1CCC(c1cc(OC)c(OC)c(OC)c1)O2 (stereo unspecified) | Active | Non-Toxic | 98.3 | Dde | 5.5 | 14.2 | 89.8 | Active | Dde | 13.1 | 16.3 | Active
COc1cc(OCC(=O)N/N=C/c2ccc(C)cc2)cc2c1CCC(c1cc(OC)c(OC)c(OC)c1)O2 (stereo unspecified) | Active | Non-Toxic | 56.4 | Dde | 9.3 | > 20 | 103 | Active | Dde | > 20 | 11.1 | Active
COc1cc(OCC(=O)N/N=C/c2ccc(Cl)c(O)c2)cc2c1CCC(c1cc(OC)c(OC)c(OC)c1)O2 (stereo unspecified) | Active | Toxic | – | – | – | – | – | – | – | – | – | –
